According to article PMC12703677, “Discovery of a Copper-Binding Carbohydrate-Binding Module Regulating the Activity of Lytic Polysaccharide Monooxygenases” (Journal of the American Chemical Society, 2025):

Key:
[1] = biological target: T1, ScLPMO10C (ScLPMO10C^(MMH)) (Streptomyces coelicolor, UniProt Q9RJY2); assay: fluorescence stopped-flow, single-turnover reduction of LPMO-Cu(II); assay type: biochemical; conditions: reductant; 50 mM sodium phosphate pH 6.0, 25 °C, anaerobic, no polysaccharide; second-order rate constant only, no Km
T1 construct: gene celS2; full-length mature AA10-linker-CBM2, native signal peptide replaced by SmLPMO10A signal peptide (cleaved; N-terminal His35), E. coli periplasm, untagged, Cu(II)-loaded

[2] = biological target: T2, ScAA10 (CD; catalytic domain of ScLPMO10C) (Streptomyces coelicolor, UniProt Q9RJY2); assay: as above; assay type: biochemical; conditions: reductant; 50 mM sodium phosphate pH 6.0, 25 °C, anaerobic, no polysaccharide; second-order rate constant only, no Km
T2 construct: gene celS2; N-terminal His35), SmLPMO10A signal peptide cleaved, E. coli periplasm, untagged, Cu(II)-loaded
T2 sequence (Q9RJY2 entry or part of it): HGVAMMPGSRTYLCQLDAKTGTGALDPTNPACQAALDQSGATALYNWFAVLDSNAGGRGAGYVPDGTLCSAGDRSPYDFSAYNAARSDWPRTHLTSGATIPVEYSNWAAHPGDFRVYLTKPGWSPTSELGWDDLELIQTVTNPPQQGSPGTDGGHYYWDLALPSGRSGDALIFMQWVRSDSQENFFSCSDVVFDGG

T1 sequence (Q9RJY2 entry or part of it): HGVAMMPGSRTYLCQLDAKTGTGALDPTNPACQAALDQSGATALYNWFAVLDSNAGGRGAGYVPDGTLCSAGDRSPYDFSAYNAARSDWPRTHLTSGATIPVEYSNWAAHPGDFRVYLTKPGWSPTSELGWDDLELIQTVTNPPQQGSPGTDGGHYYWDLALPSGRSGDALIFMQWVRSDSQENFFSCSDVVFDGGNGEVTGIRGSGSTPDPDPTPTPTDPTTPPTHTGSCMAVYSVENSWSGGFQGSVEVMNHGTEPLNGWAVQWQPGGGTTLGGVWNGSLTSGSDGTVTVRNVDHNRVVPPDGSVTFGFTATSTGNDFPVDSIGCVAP

## O=C1O[C@H]([C@@H](O)CO)C(O)=C1O [ascorbic acid]
[1]
  k AscA: the two variants exhibited identical reduction rates
[2]
  k AscA: the two variants exhibited identical reduction rates
